One experiment has as its target T1, SHIP 1 enzyme (Homo sapiens, UniProt Q92835).
T1 construct: hemagglutinin (HA); hexahistidine (His6); made in house
T1 sequence (Q92835 1-1189): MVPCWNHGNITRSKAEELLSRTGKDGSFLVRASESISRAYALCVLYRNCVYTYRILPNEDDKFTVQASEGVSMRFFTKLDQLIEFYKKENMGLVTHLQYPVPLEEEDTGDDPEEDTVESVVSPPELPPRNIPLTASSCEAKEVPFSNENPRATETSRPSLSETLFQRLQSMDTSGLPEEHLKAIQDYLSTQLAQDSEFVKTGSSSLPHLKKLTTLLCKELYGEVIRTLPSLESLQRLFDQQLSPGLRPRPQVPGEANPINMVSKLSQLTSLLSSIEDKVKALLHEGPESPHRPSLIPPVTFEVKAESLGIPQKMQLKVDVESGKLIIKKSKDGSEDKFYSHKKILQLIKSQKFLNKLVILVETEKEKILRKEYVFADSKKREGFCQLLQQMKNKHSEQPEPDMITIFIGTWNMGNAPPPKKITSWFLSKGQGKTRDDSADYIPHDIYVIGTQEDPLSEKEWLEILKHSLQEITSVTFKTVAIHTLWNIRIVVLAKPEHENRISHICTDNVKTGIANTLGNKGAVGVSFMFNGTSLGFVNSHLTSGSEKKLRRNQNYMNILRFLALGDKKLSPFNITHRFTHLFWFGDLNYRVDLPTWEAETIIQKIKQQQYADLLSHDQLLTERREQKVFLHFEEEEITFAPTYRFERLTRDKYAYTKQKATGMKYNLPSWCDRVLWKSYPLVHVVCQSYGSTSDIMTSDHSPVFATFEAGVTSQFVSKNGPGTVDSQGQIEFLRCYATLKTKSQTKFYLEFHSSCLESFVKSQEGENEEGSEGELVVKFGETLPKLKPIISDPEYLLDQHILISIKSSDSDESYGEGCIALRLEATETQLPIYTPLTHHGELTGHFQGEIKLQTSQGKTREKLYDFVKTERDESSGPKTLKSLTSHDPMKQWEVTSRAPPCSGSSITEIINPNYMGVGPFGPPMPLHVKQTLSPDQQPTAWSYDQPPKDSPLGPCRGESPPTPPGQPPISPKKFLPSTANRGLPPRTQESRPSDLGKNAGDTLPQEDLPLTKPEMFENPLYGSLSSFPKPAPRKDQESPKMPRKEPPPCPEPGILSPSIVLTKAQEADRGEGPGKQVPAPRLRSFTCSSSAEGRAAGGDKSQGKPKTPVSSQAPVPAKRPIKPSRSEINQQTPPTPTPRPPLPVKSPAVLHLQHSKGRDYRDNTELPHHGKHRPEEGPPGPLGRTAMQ
Nature of the experiment: SHIP 1 enzyme assay (inorganic phosphate release, malachite green). It is filed as biochemical. The note with it: FIG. 1. The procedure:
The assay was performed in 96-well microtitre plates. SHIP 1 enzyme was produced with a hemagglutinin and a hexahistidine tag, from a mammalian expression vector. The His tag was employed to enhance purification. SHIP 1 enzyme (10 ng) was incubated with extract or DMSO for 15 minutes at room temperature before addition of 200 µM inositol-1,3,4,5-tetrakisphosphate. The reaction was allowed to proceed for 20 minutes at 37 degrees C. The amount of inorganic phosphate released was then assessed by the addition of malachite green reagent followed by an absorbance measurement at 650 nm.

Another experiment has as its system SHIP 1−/− macrophages. Nature of the experiment: Macrophage NO release assay in SHIP 1-/- macrophages. Conditions: FIG. 2. Type of experiment: cell-based. As for the experimental part:
For the NO release assay, wild-type or SHIP 1−/− macrophage cells were aliquoted into microtitre plates (5×10^4/well) and activated with […] endotoxin (LPS) in the presence or absence of test compound or DMSO carrier. The cells were incubated at 37° C., 5% CO2 for 24 hours and the culture supernatant was removed for NO determination using the Griess reagent. Alternatively, J774.1a macrophage cells were treated with 10 ng/ml of test compound dissolved in DMSO for 40 minutes prior to the addition of LPS. Culture supernatants were collected after 24 hr. for determination of NO concentration using the Griess reagent.

Experiment [1] concerns bone marrow derived mast cells. Nature of the experiment: Mast cell activation assay (β-hexosaminidase release). It is filed as cell-based. Conditions: FIG. 3. As for the experimental part: For the mast cell activation assay, bone marrow derived mast cells were incubated at 4° C. with anti-DNP IgE for 1 hr. They were then washed twice with 23° C. Tyrode's buffer, and incubated in the presence of test compound or vehicle control for 30 minutes before a 15 minute treatment with DNP-human serum albumin. The degree of degranulation was determined by measuring the release of β-hexosaminidase.

In another experiment the test system is antitrypanosomal. The note with it: reported in literature; cited from earlier work.
In another experiment the test system is antiplasmodial. The note with it: reported in literature; cited from earlier work.

For `COC(=O)c1cc(O)c(O)c2c1[C@]1(C)CC[C@H]3C(C)(C)CCC[C@]3(C)[C@H]1C2` [Pelorol, pelorol], the “Activation of SHIP 1 in enzyme assay (assay-guided fractionation)” value at SHIP 1 enzyme was “active compound”. In the experiment with SHIP 1−/− macrophages, the “Inhibition of NO release in SHIP 1−/− macrophages” value is on record as “not observed”. The “IgE induced mast cell degranulation” value in experiment [1] is given as “significantly reduced”. Moreover, in the experiment with antitrypanosomal, the antitrypanosomal effects entry was “weak”. In the experiment on antiplasmodial, the antiplasmodial effects result is reported as “weak”.

(Values after patent US8765994B2, “Ship 1 modulators” (The University of British Columbia, priority 2001, dated 2014).)
